# Entries after “also recorded” stand apart in the source; their conditions may differ.
# Legend:
# Na+/H+ exchanger [1] = assay: Na+/H+ exchanger activity in BCECF-loaded SH-SY5Y-AT1A cells; format: cell-based, human
# Method: Similarly, Na^+/H^+ exchanger activity was measured in response to angiotensin II at the individual cell level in BCECF-loaded SH-SY5Y-AT1A cells. […] Exposing the cells to BAPTA-AM (10 μM) prior to angiotensin II, prevented the angiotensin II-induced increase in Na^+/H^+ exchanger activity.
# [2] = test system: cardiac sympathetic nerve endings; assay: angiotensin II-evoked norepinephrine release from cardiac sympathetic nerve endings; details: for decrease of angiotensin II-induced norepinephrine release / effect on norepinephrine release induced by angiotensin II (FIG. 20): EIPA 30 μM, U-73122 1 μM; for decrease of angiotensin II-induced norepinephrine release: DMI 300 nM; for effect on norepinephrine release induced by angiotensin II (FIG. 20): DMI 300 μM
# Method: Briefly, male Hartley guinea pigs were anesthetized with CO2 vapor and then exsanguinated. Hearts were perfused through the aorta for 15 min at constant pressure with Ringer's solution at 37° C. […] Hearts were minced in 0.32 M sucrose containing 1 mM EGTA. The minced tissue was then digested with 75 mg collagenase per 10 ml HBS per gm for 1 hr at 37° C. After low speed centrifugation the resulting pellet were suspended in 10 volumes of 0.32 M sucrose and homogenized with a Teflon/glass homogenizer. The homogenate was centrifuged at 650g for 10 min, the pellet was re-homogenized and the homogenate was centrifuged again. The pellet containing cellular debris was discarded, the supernatants from the last two spins were combined, the pooled supernatant was equally subdivided into 4 to 8 tubes and re-centrifuged for 20 min at 20,000g at 4° C. This pellet contains cardiac sympathetic nerve endings. The pellet was resuspended either in HEPES-buffered saline (HBS; 500 μl, normoxic conditions) or in glucose-free HBS, which contained the reducing agent sodium dithionite (500 μl, ischemic conditions), and incubated in the absence or presence of angiotensinogen (1 hr) or other agents for 20 min at 37° C. prior to ischemia (see below). Each suspension was used only once as an independent sample.
# Norepinephrine assay: Coronary effluent and synaptosome supernatant will be assayed for NE by HPLC with electrochemical detection (ESA). […] The detection limit is about 0.2 pmol.
# SH-SY5Y-AT1A cells [3] = assay: [3H]MPP+ release from SH-SY5Y-AT1A cells
# Description: Efflux was arrested after 10-min exposure to angiotensin II.
# SH-SY5Y-AT1A cells [4] = assay: intracellular calcium in Fura-2 loaded SH-SY5Y-AT1A cells; format: cell-based, human
# Method: The next series of experiments were used to outline the major signaling steps in angiotensin II-evoked release of norepinephrine from sympathetic nerve endings. In particular, experiments were designed to ascertain whether stimulation of PLC might result in an increase in intracellular calcium via IP3 generation. Intracellular calcium (Cai) was measured at the individual cell level using Fura-2 loaded SH-SY5Y-AT1A cells (McDonald et al., Neurosci. Lett. 199: 115-118, 1995; Silver et al., Proc. Natl. Acad. Sci. USA 99: 501-506, 2002).
# As discussed above, PLC activation may be an early signaling step in mediating this angiotensin II-induced Ca^2+ transient. The PLC inhibitor U-73122 (1 μM) was used to verify this hypothesis. FIG. 21B is a representative trace from one Fura-2 loaded SH-SY5Y-ATIA cell pre-exposed to U-73122.
# human lung mast cells = details: cited from earlier work
# [5] = test system: cardiac sympathetic nerve endings; assay: norepinephrine release from isolated cardiac sympathetic nerve endings incubated with angiotensinogen; format: cell-based, guinea pig
# Description: Preparation ofguinea-pig sympathetic nerve endings: Cardiac sympathetic nerve endings were isolated from guinea-pig hearts as previously described (Seyedi et al., J Pharmacol Exp Ther 290: 656-663, 1999; Seyedi et al., Circ. Res. 81: 774-784, 1997). Spontaneously beating hearts were isolated as previously described by the inventors (Hatta et al., J. Pharmacol. Exp. Ther. 288: 919-927, 1999; Park et al., Circ. Res. 71: 992-1001, 1992). Briefly, male Hartley guinea pigs were anesthetized with CO2 vapor and then exsanguinated. Hearts were perfused through the aorta for 15 min at constant pressure with Ringer's solution at 37° C. (Park et al., Circ. Res. 71: 992-1001, 1992) to exclude blood from the coronary circulation. Hearts were minced in 0.32 M sucrose containing 1 mM EGTA. The minced tissue was then digested with 75 mg collagenase per 10 ml HBS per gm for 1 hr at 37° C. After low speed centrifugation the resulting pellet were suspended in 10 volumes of 0.32 M sucrose and homogenized with a Teflon/glass homogenizer. The homogenate was centrifuged at 650g for 10 min, the pellet was re-homogenized and the homogenate was centrifuged again. The pellet containing cellular debris was discarded, the supernatants from the last two spins were combined, the pooled supernatant was equally subdivided into 4 to 8 tubes and re-centrifuged for 20 min at 20,000g at 4° C. This pellet contains cardiac sympathetic nerve endings. The pellet was resuspended either in HEPES-buffered saline (HBS; 500 μl, normoxic conditions) or in glucose-free HBS, which contained the reducing agent sodium dithionite (500 μl, ischemic conditions), and incubated in the absence or presence of angiotensinogen (1 hr) or other agents for 20 min at 37° C. prior to ischemia (see below). Each suspension was used only once as an independent sample.
# Norepinephrine assay: Coronary effluent and synaptosome supernatant will be assayed for NE by HPLC with electrochemical detection (ESA). […]
# [6] = test system: isolated normoxic guinea pig hearts; assay: chronotropic response and norepinephrine overflow in normoxic isolated hearts challenged with 48/80; details: BILA 2157 100 nM, lodoxamide 30 μM
# Description: These findings indicate that cardiac mast cells are capable of releasing active renin, which then leads to local formation of ANG II causing norepinephrine exocytosis.
# cardiac mast cells = assay: renin in coronary effluent of normoxic Langendorff-perfused hearts challenged with 48/80; set-up: species or system guinea pig; details: lodoxamide 10 μM or BILA 2157 100 nM prior to 48/80
# Method: Renin was measured in the coronary effluent of normoxic Langendorff-perfused guinea-pig hearts, ex vivo. […] When hearts were perfused with the mast-cell stabilizer lodoxamide (FIG. 9B) or the renin inhibitor BILA2157 prior to 48/80 challenge (FIGS. 9A and B), renin overflow was abolished.
# guinea-pig hearts = assay: ischemia-reperfusion in guinea pig hearts ex vivo (Langendorff); details: 20-min global ischemia, 45-min reperfusion, lodoxamide 10 μM; for ventricular fibrillation during reperfusion: BILA2157 100 nM
# Method: Ischemia-reperfusion in guinea pig hearts ex vivo: Guinea-pig hearts will be perfused for 30 min prior to ischemia. Inamura et al., Circ. Res. 78: 475-481 (1996). Normothermic 20-min global ischemia will be induced by complete cessation of coronary perfusion, followed by 45-min reperfusion. Coronary effluent will be assayed for renin activity and NE.
# Guinea-pig hearts were perfused ex vivo at constant pressure in a Langendorff apparatus and subjected to 20-min. stop-flow global ischemia, followed by 45-min. reperfusion (Hatta, E., R. Maruyama, S. J. Marshall, M. Imamura, and R. Levi. Bradykinin promotes ischemic norepinephrine release in guinea pig and human hearts. J. Pharmacol. Exp. Ther. 288: 919-927 (1999)). Surface ECG and coronary flow were continuously monitored; the coronary effluent was assayed for renin activity (i.e., ANG I generated as described herein). There was no detectable renin in the coronary effluent prior to ischemia. With reperfusion, there was significant renin overflow into the coronary effluent accompanied by ventricular fibrillation (VF) (FIG. 12).
# Traces in the left panels were recorded at the end of the equilibration period prior to ischemia, showing normal sinus rhythm.
# Na+/H+ exchanger [7] = assay: Na+/H+ exchanger activity (acid pulse protocol) in cardiac sympathetic nerve endings; format: cell-based, guinea pig; details: angiotensin II 10 nM; for increase in Na+/H+ exchanger activity over control: norepinephrine 1 μM
# Method: Na^+/H^+ exchanger activity was assayed by measuring the rate of Na^+-dependent intracellular alkalinization in response to an acid load (NH4Cl). An example of the “acid pulse protocol” used to show Na^+/H^+exchanger activity in dye-loaded (BCECF-loaded) sympathetic nerve endings from guinea pig heart is shown in FIG. 18A. This protocol was performed under HEPES-buffered conditions. All of the solutions perfusing the tissue were osmotically balanced using N-methyl-D-glucamine substitution as previously described (Silver et al., Am. J. Physiol. Renal Physiol. 279: F195-F202, 2000; Silver et al., Am. J. Physiol. 275: F94-102, 1998). As shown in the representative tracing in FIG. 18A, guinea-pig heart sympathetic nerve endings, attached to a cover slip and pre-loaded with BCECF to monitor intracellular pH, were initially bathed in a balanced salt solution (Na Ringer's solution).
# The slope of this alkalinization of Na^+/H^+ exchanger activity, represented by the dashed line in FIG. 18A, was 0.04 pH units/min. […] Mean Na^+/H^+ exchanger activities measured in cardiac sympathetic nerve endings in this pilot study are compared in FIG. 18C.
molecule,measurement,setting,value
CC(=O)OCOC(=O)CN(CC(=O)OCOC(C)=O)c1ccccc1OCCOc1ccccc1N(CC(=O)OCOC(C)=O)CC(=O)OCOC(C)=O [BAPTA-AM],effect on angiotensin II-induced increase in Na+/H+ exchanger activity,Na+/H+ exchanger [1]; 10 μM prior to angiotensin II 10 nM,prevented
"CNCCCN1c2ccccc2CCc2ccccc21 [DMI, desipramine]",decrease of angiotensin II-induced norepinephrine release,[2],about 50%
same,effect on norepinephrine release induced by angiotensin II (FIG. 20),[2]; angiotensin II 100 nM,blocked
"CCN(c1nc(N)c(C(=O)N=C(N)N)nc1Cl)C(C)C [EIPA, 5-(N-ethyl-N-isopropyl)-amiloride]",decrease of angiotensin II-induced norepinephrine release,[2],about 50%
same,effect on norepinephrine release induced by angiotensin II (FIG. 20),[2]; angiotensin II 100 nM,blocked
"CCCCCCCCCCCCCC(=O)O[C@@H]1[C@@H](C)[C@@]2(O)[C@@H](C=C(CO)C[C@]3(O)C(=O)C(C)=C[C@@H]23)[C@@H]2C(C)(C)[C@]12OC(C)=O [PMA, phorbol 12-myristate 13-acetate]",increase in the releasing effect of angiotensin II,SH-SY5Y-AT1A cells [3]; 8-min incubation with PMA,3 fold
COc1ccc2c(c1)CC[C@@H]1[C@@H]2CC[C@]2(C)[C@@H](NCCCCCCN3C(=O)C=CC3=O)CC[C@@H]12 [U-73122],decrease of angiotensin II-induced norepinephrine release,[2],about 60%
same,effect on norepinephrine release induced by angiotensin II (FIG. 20),[2]; angiotensin II 100 nM,blocked
same,effect on angiotensin II-induced intracellular calcium transient,SH-SY5Y-AT1A cells [4]; U-73122 1 μM,prevented
CC(=O)OC[C@H]1O[C@@H]([S-])[C@H](OC(C)=O)[C@@H](OC(C)=O)[C@@H]1OC(C)=O.CCP(CC)CC.[Au+] [auranofin],inhibition of human lung mast cell release (histamine),human lung mast cells,inhibited
O=C(O)c1cc(=O)c2c(OCC(O)COc3cccc4oc(C(=O)O)cc(=O)c34)cccc2o1 [disodium cromoglycate],inhibition of human lung mast cell release (histamine),human lung mast cells,poorly inhibit
C[C@H](N[C@@H](CCc1ccccc1)C(=O)O)C(=O)N1CCC[C@H]1C(=O)O [enalaprilat],effect on 48/80 potentiation of norepinephrine release,"[5]; nerve endings incubated with BILA2157 10 nM, enalaprilat 30 nM or EXP 3174 10 nM",abolished
CC(Cc1ccc(O)cc1)NCC(O)c1cc(O)cc(O)c1 (stereo not drawn) [fenoterol],inhibition of human lung mast cell release (histamine),human lung mast cells,most potent global inhibitors
N#Cc1cc(NC(=O)C(=O)O)c(Cl)c(NC(=O)C(=O)O)c1 [lodoxamide],norepinephrine release when hearts perfused with stabilizer prior to 48/80,[5]; lodoxamide 10 μM,markedly attenuated
same,chronotropic response to 48/80,[6],markedly abbreviated; also recorded: diminishes the chronotropic response
same,renin overflow into coronary effluent after 48/80 challenge,cardiac mast cells,abolished; also recorded: markedly diminished
same,ventricular fibrillation during reperfusion,guinea-pig hearts,no ventricular fibrillation; also recorded: prevent ventricular fibrillation
same,ventricular fibrillation during reperfusion,guinea-pig hearts; listed as Lodoxamide,prevented ventricular fibrillation
same,renin overflow into coronary effluent on reperfusion,guinea-pig hearts; BILA 2157 100 nM,no such increase occurs; also recorded: disappeared from the coronary effluent; also recorded: prevented renin release
CCCc1c2oc(C(=O)O)cc(=O)c2cc2c(=O)cc(C(=O)O)n(CC)c12 [nedocromil sodium],inhibition of human lung mast cell release (histamine),human lung mast cells,poorly inhibit
NC[C@H](O)c1ccc(O)c(O)c1 [norepinephrine],increase in Na+/H+ exchanger activity over control,Na+/H+ exchanger [7],about 3 fold
"angiotensin II (DRVYIHPF; Angiotensin-2; UniProt P01019 25-32, looked up)",increase in norepinephrine release above basal level,[2]; angiotensin II 100 nM,27%
same,increase in Na+-dependent intracellular pH recovery rate,Na+/H+ exchanger [1]; angiotensin II 10 nM,2.5 fold
same,intracellular calcium after angiotensin II,"SH-SY5Y-AT1A cells [4]; angiotensin II 10 nM, from about 60 nM basal",220 nM
same,rate of Na+-dependent intracellular alkalinization,Na+/H+ exchanger [7]; control 0.04,0.19 pH units/min
same,increase in Na+/H+ exchanger activity over control,Na+/H+ exchanger [7],about 6 fold
same,increase in MPP+ release above basal levels,SH-SY5Y-AT1A cells [3]; 10-min exposure,20%

# From US20080032918A1, “Mast cell-derived renin” (Cornell Research Foundation, Inc., priority 2003, published 2008)
